According to a melting point compilation (Tetko et al.; mined from patent text by program, amines drawn as free bases though some values may be those of a salt):

In the case of `CC(C)(C)OC(=O)N1CCC(C(=O)N2CCC(c3[nH]nc4c3C(=O)c3c(NC(=O)NN5CCOCC5)cccc3-4)CC2)CC1`, the melting point is reported as 220 to 222 °C. `CSC1=NN=C(c2ccc([N+](=O)[O-])cc2)c2cc3c(cc2C1)OCO3` gave a melting point of 280 to 281 °C. `O=[N+]([O-])N=C1SCCN1Cc1ccncc1` gave a melting point of 151 to 152 °C. In the case of `Cc1cccc(NC(=O)NCC(=O)N(CC(=O)N(C)c2ccccc2)c2ccccc2)c1`, the melting point is reported as 168 °C. `Cn1ncnc1COc1nn2c(-c3ccccc3F)nnc2cc1-c1cccc(F)c1` showed a melting point of 204 to 206 °C. Compound `CC(C)(C)OC(=O)/C(=C/c1ccc(Br)cc1)C(=O)c1ccccc1O` has a melting point of 98 to 100 °C. `O=C(NS(=O)(=O)c1ccccc1)c1cccc2nnsc12` showed a melting point of 173 to 175 °C. Compound `COC(=O)C(Cc1ccccc1)Nc1nnc(N)s1` (configuration not stated) has a melting point of 186 to 189 °C. In the case of `CCCn1cc(C(=O)NCc2ccc(Cl)cc2)c(=O)c2cc(C#CCO)ccc21`, the melting point is reported as 183 to 184 °C. `Cc1c2c(c(-c3ccc4c(c3)OCO4)c3c4c(ccc13)OCO4)C(=O)NC2=O` showed a melting point of 310 to 313 °C. `COc1cc(C=CC(=O)c2ccccc2[N+](=O)[O-])cc(OC)c1` showed a melting point of 98.4 to 98.9 °C. Work on `Cc1ccc(-c2cc(=O)cc(C(=O)O)o2)cc1` yielded a melting point of 237 to 238 °C. In the case of `COC(=O)Cc1ccc(OCCNC(=O)C2Cc3ccccc3N2S(=O)(=O)c2ccc(-c3cc(C(F)(F)F)ccc3Cl)cc2)c(F)c1` (configuration not stated), the melting point is reported as 56 to 62 °C. In the case of `Cc1noc(NS(=O)(=O)c2ccccc2-c2ccccc2CO)c1C`, the melting point is reported as 70 to 80 °C. In the case of `COC(=O)NC(=O)Nc1nc2ccccc2s1`, the melting point is reported as 338 to 340 °C. In the case of `COC1(C2=NCCN2)COc2c(F)cccc2O1` (configuration not stated), the melting point is reported as > 260 °C. Work on `CC1(C)C=C(c2cccnc2)c2cc(Cl)c(Cl)cc2OC1` yielded a melting point of 112 °C. `COc1ccc2c(c1)SSSSS2` gave a melting point of 97 to 98 °C. `N#Cn1nc(-c2ccccc2)c(=O)cc1Cl` showed a melting point of 117 to 119 °C. Compound `CCCCCS(=O)(=O)NC(=O)/C=C/c1cc(OC(C)C)nn1Cc1ccc(Cl)cc1Cl` has a melting point of 109 to 112 °C. `CCOC(C)=NNc1ccc([N+](=O)[O-])cc1` showed a melting point of 102 °C. Work on `Cc1cc(CCCCCOc2ccc(C3=NCCO3)cc2C(F)F)on1` yielded a melting point of 80 to 89 °C. Compound `Cc1cc(-c2sc(N3CCN(CC4CC4)C3=O)nc2C)n[nH]1` has a melting point of 231 to 233 °C. `O=C(Nc1ccc(F)c([N+](=O)[O-])c1)c1ccc(Cl)c(Cl)c1` showed a melting point of 202 to 204 °C. `CN(C)c1ccc(CNc2ccc(Cl)c(Cl)c2)cc1` showed a melting point of 117 °C. Compound `Oc1ccc(-c2cc3cc(O)cc(CBr)c3o2)cc1` has a melting point of 337 to 339 °C. In the case of `CCCCNC(=O)NS(=O)(=O)Cc1c(C(=O)OC)cccc1S(=O)(=O)N(C)C`, the melting point is reported as 118 to 134 °C. Work on `N#CCCNC(=O)c1cc(-c2cccc3nn(Cc4cccc(C(F)(F)F)c4)cc23)ccn1` yielded a melting point of 166 to 167 °C. `CC(C)(C)C1=NC(=Cc2[nH]c(C(C)(C)C)c3ccccc23)c2ccccc21` showed a melting point of 195 °C. `O=C(Nc1ccc2cc(CN3CCC(CCO)CC3)cnc2c1)c1ccc(-c2ccc(Cl)cc2)cc1` gave a melting point of 204 °C. `NCCCCn1cnc(-c2ccccc2)c1` gave a melting point of 130 to 132 °C. Compound `CCOC(=O)c1c2ccc(Cl)cc2c(-c2ccccc2)n1CCO` has a melting point of 114 to 116 °C. Compound `CC(=O)NCc1ccc(CN2CCN(c3ccc(NC(C)=O)cc3)CC2)cc1` has a melting point of 225 to 226 °C. With `COC(=O)NC(C#N)Cc1ccc(OC)c(OC2CCCC2)c1` (configuration not stated) the melting point was 121 to 122 °C. `Cc1sc2c(c1C(=O)CCCl)NC(=O)CCC2` gave a melting point of 86 to 87 °C. In the case of `COCCn1cc2c(C3C(=O)Nc4ccc(Br)cc43)nc(NCc3cccnc3)nc2n1` (configuration not stated), the melting point is reported as 300 to 301 °C. With `CCCCc1c(/C=C/C(=O)Oc2ccc([N+](=O)[O-])cc2)cc(OC)c2ccccc12` the melting point was 122 °C. `O=Cc1ccc(CSCCN2C(=O)c3ccccc3C2=O)o1` gave a melting point of 76 to 77 °C. Work on `COc1cccc2c1C[C@H]1C[C@@H](CCN3CCC(O)(c4ccc(Cl)cc4)CC3)CN(C)[C@@H]1C2` yielded a melting point of 212 to 215 °C. `Cn1cc(C=O)cc1C(=O)OC(C)(C)C` showed a melting point of 92 °C. `CN1CC[C@@H](c2c(O)cc(O)c3c(=O)cc(-c4cccs4)oc23)[C@@H]1CO` gave a melting point of 218 to 220 °C. In the case of `COc1ccc(Oc2cc(Cl)ccc2[N+](=O)[O-])c(C(=O)O)c1`, the melting point is reported as 232 to 234 °C. With `COc1cc(C)c(C(=O)O)c(OC)c1OC` the melting point was 95 to 97 °C. In the case of `CC(C)OC(=O)C(C)(C)Oc1ccc(C(=O)c2ccc(O)cc2)cc1`, the melting point is reported as 124 °C. With `COC[C@H]1CCCN1C(=O)c1ccc(-c2[nH]nc3c2C(=O)c2c(NC(=O)NN4CCOCC4)cccc2-3)s1` the melting point was 262 °C. `COC(=O)NC(=N)N(C(=O)OC)c1c(Cc2ccccc2)c[nH]c1C(=O)OC` gave a melting point of 158 to 160 °C. `CCCN(CCC)Cc1cnc(-c2ncn3c2CN(C)C(=O)c2c-3ccc(F)c2Cl)o1` showed a melting point of 110 to 112 °C. Compound `COc1ccc(C2(O)CCCN(Cc3ccccc3)C2)cc1` (configuration not stated) has a melting point of 58 °C. In the case of `O=C(CS(=O)Cc1ccc2c(c1)OCO2)NO` (configuration not stated), the melting point is reported as 206 °C. Compound `CC(C)(C1=NOS(=O)N1)c1ccc2ccccc2c1` (configuration not stated) has a melting point of 146 to 147 °C. `CC(C)Cn1c(CNC(=O)OC(C)(C)C)c(OCCCC(F)(F)F)c2cc(O)ccc2c1=O` gave a melting point of 173 to 174 °C. With `CS(=O)(=O)N(c1cc(F)c(F)cc1C#N)S(C)(=O)=O` the melting point was 144 °C. `CN1C(=O)NC(=O)CC1c1ccccc1` (configuration not stated) gave a melting point of 155 to 156 °C. For `Cc1cc(CBr)cc(CBr)c1`, the melting point was 65 to 66 °C. For `CCOC(=O)c1cc(O)nn1-c1ncc(Cl)cc1Cl`, the melting point was 164 to 167 °C. With `CN(C)C(c1ccccc1Cl)C1CCCCC1(O)c1ccc2ccccc2c1` (configuration not stated) the melting point was > 230 °C. `O=C(CCl)N(c1ccccc1)c1cccc(F)c1` showed a melting point of 115 to 117 °C. Compound `Cc1ccc2[nH]c(=O)c(=O)[nH]c2c1CN(C)Cc1ccccc1` has a melting point of 205 to 206 °C. Compound `CCCc1nc(C(C)(C)O)c(C(=O)OCC)n1Cc1ccc(-c2ccccc2C(N)=O)cc1` has a melting point of 148 to 151 °C. Compound `COc1ccc2c(c1OC)C(C)NC(=O)N2` (configuration not stated) has a melting point of 210 to 212 °C. `CCCCc1nc(SC)c(C(=O)OCC)n1Cc1cccc(-c2ccc(S(=O)(=O)NC#N)cc2)c1` showed a melting point of 120 °C. For `CC(C)(C)OC(=O)NNc1ccc(NC(=O)OC(C)(C)C)cc1`, the melting point was 155 °C. `CCCCCCCCCCCCc1nnn(C(C)(C)C(=O)O)n1` showed a melting point of 68 to 71 °C. `CN1CCCc2ccc(NC(=O)/C=C/c3ccc(C(C)(C)C)cc3)cc21` gave a melting point of 200 to 202 °C. Compound `CCOC(=O)C1=C(C)NC(C)=C(C(=O)OCC)C1c1ccccc1F` has a melting point of 151 to 152 °C. With `Cc1ccc(N)cc1Nc1ncc(-c2ccc(C#N)cc2)o1` the melting point was 144 °C. With `Cc1onc(-c2ccc(F)cc2)c1-c1ccc(S(N)(=O)=O)c(F)c1` the melting point was 180 to 182 °C. For `CC(=O)N1CC(=O)N(CC(N)=O)C1(C)C`, the melting point was 188 to 189 °C. Work on `Cc1c(C)c(N2C(=O)c3ccccc3C2=O)c(C)c2c1OC(C)(C)C2c1ccc(F)cc1` (configuration not stated) yielded a melting point of 209 to 211 °C. For `CS(=O)(=O)c1ccc(-c2cnn(-c3cccc(Cl)c3)c(=O)c2Cc2cccc(F)c2)cc1`, the melting point was 142 to 143 °C. `Clc1ccn2cc(Cl)nc2c1` gave a melting point of 153 to 154 °C. `CC(=O)Nc1c(C)c(C)c2c(c1N(C)C)CC(C)(C)O2` showed a melting point of 186 °C.
